Earlier results, collected in US20060275223A1, “Erythritol compositions for teeth and gums” (priority 2005, published 2006).

Settings: erythritol comprises 20% of the diet

Structure (SMILES): OC[C@@H](O)[C@@H](O)CO [erythritol]
- diarrhea: does not cause diarrhea
